Where only a bound is given, the exact number is not on record here.

The target of this assay is T1, hMC2 receptor (crude hMC2R membranes from CRE-bla-CHO-K1 cells stably expressing hMC2 receptor and hMRAP accessory protein) (Homo sapiens, UniProt Q01718).
T1 construct: crude membrane fractions
T1 sequence (Q01718 whole entry): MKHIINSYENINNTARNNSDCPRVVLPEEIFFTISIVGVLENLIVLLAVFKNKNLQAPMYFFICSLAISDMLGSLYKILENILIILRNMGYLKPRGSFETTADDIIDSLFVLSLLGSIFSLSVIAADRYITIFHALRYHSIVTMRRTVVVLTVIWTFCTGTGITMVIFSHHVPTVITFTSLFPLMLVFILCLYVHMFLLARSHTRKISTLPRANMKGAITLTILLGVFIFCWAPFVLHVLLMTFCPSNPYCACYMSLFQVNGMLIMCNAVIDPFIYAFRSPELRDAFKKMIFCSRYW
T1 sequence (Q8TCY5 whole entry partner): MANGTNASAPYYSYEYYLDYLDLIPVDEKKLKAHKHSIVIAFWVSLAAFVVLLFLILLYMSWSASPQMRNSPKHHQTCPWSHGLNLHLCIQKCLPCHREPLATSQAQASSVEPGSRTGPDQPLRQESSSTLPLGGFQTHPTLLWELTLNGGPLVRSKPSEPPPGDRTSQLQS
Nature of the assay: hMC2 membrane binding assay ([125I]ACTH (1-39) Tyr23, SPA). The note with it: displacement of 0.2 nM [125I]ACTH (1-39) Tyr23 from hMC2R membranes, 1.5 hours at room temperature; read-out: MC2R binding potency. The method in brief:
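Crude membranes from CRE-bla-CHO-K1 cells stably co-expressing hMC2R and hMRAP, premixed with WGA PVT SPA beads in pH 7.4 HEPES buffer (5 mM MgCl2, 1 mM CaCl2, 0.20% BSA, protease inhibitors). Compounds compete with [125I]ACTH(1-39) Tyr23, read by scintillation. Ki from non-linear regression.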
For the compound `CN1CC[C@H](NC(=O)C2(c3cnc(-c4cccn4C)c(F)c3)CCN(c3ccc(Cl)cc3C#N)CC2)C1` [Compound 1-163, 1-(4-chloro-2-cyanophenyl)-4-[5-fluoro-6-(1-methyl-1H-pyrrol-2-yl)pyridin-3-yl]-N-[(3S)-1-methylpyrrolidin-3-yl]piperidine-4-carboxamide], the Ki was below 10 nM. The value for `CCOc1ncccc1-c1ccc(C2(C(=O)N[C@@H]3CN4CCC3CC4)CCN(c3ccc(C(F)(F)F)cc3C#N)CC2)cn1` [Compound 1-20, N-[(3S)-1-azabicyclo[2.2.2]octan-3-yl]-1-[2-cyano-4-(trifluoromethyl)phenyl]-4-{2′-ethoxy-[2,3′-bipyridin]-5-yl}piperidine-4-carboxamide] was below 10 nM; that for `Cc1sccc1-c1ccc(C2(C(=O)N[C@H]3CCN(C)C3)CCN(c3ccc(C(F)(F)F)cc3C#N)CC2)cn1` [Compound 1-122, 1-[2-cyano-4-(trifluoromethyl)phenyl]-N-[(3S)-1-methylpyrrolidin-3-yl]-4-[6-(2-methylthiophen-3-yl)pyridin-3-yl]piperidine-4-carboxamide] was below 10 nM. As for `CN1CC[C@H](NC(=O)C2(c3ccc(-c4ccc[nH]4)nc3)CCN(c3ccc(C(F)(F)F)cc3C#N)CC2)C1` [Compound 1-143, 1-[2-cyano-4-(trifluoromethyl)phenyl]-N-[(3S)-1-methylpyrrolidin-3-yl]-4-[6-(1H-pyrrol-2-yl)pyridin-3-yl]piperidine-4-carboxamide], the Ki is below 10 nM. The value for `COc1ccccc1-c1ccc(C2(NC(=O)O[C@@H]3CCN(C)C3)CCN(c3ccc(C(F)(F)F)cc3C#N)CC2)cn1` [Compound 2-54, (3R)-1-methylpyrrolidin-3-yl N-{1-[2-cyano-4-(trifluoromethyl)phenyl]-4-[6-(2-methoxyphenyl)pyridin-3-yl]piperidin-4-yl}carbamate] was below 10 nM. Take `CCOc1ncccc1-c1ccc(C2(C(=O)N[C@@H]3CCNC3)CCN(c3ccc(C(F)(F)F)cc3C#N)CC2)cn1` [Compound 1-10, 1-[2-cyano-4-(trifluoromethyl)phenyl]-4-{2′-ethoxy-[2,3′-bipyridin]-5-yl}-N-[(3R)-pyrrolidin-3-yl]piperidine-4-carboxamide]: the Ki is below 10 nM. In the case of `CCc1ccccc1-c1ccc(C2(C(=O)N[C@H]3CCN(C)C3)CCN(c3ccc(C(F)(F)F)cc3C#N)CC2)cn1` [Compound 1-104, 1-[2-cyano-4-(trifluoromethyl)phenyl]-4-[6-(2-ethylphenyl)pyridin-3-yl]-N-[(3S)-1-methylpyrrolidin-3-yl]piperidine-4-carboxamide], the Ki is below 10 nM. The value for `CCOc1ncccc1-c1ccc(C2(C(=O)N[C@@H]3CCN(C)C3)CCN(c3ccc(C(F)(F)F)cc3C#N)CC2)nn1` [Compound 1-57, 1-[2-cyano-4-(trifluoromethyl)phenyl]-4-[6-(2-ethoxypyridin-3-yl)pyridazin-3-yl]-N-[(3R)-1-methylpyrrolidin-3-yl]piperidine-4-carboxamide] was below 10 nM; that for `CCOc1ncccc1-c1ccc(C2(C(=O)N[C@@H]3CCN(C)C3)CCN(c3ccc(C(F)(F)F)cc3C#N)CC2)nc1` [Compound 1-22, 1-[2-cyano-4-(trifluoromethyl)phenyl]-4-{2′-ethoxy-[3,3′-bipyridin]-6-yl}-N-[(3R)-1-methylpyrrolidin-3-yl]piperidine-4-carboxamide] was below 10 nM; that for `CCOc1ccccc1-c1ncc(C2(C(=O)NCCNC)CCN(c3ccc(C(F)(F)F)cc3Cl)CC2)cc1F` [Compound 1-292, 1-[2-chloro-4-(trifluoromethyl)phenyl]-4-[6-(2-ethoxyphenyl)-5-fluoropyridin-3-yl]-N-[2-(methylamino)ethyl]piperidine-4-carboxamide] was below 10 nM.

For `COc1ccc(F)cc1-c1ccc(C2(C(=O)N[C@@H]3CCN(C)C3)CCN(c3ccc(C(F)(F)F)cc3C#N)CC2)cn1` [Compound 1-81, 1-[2-cyano-4-(trifluoromethyl)phenyl]-4-[6-(5-fluoro-2-methoxyphenyl)pyridin-3-yl]-N-[(3R)-1-methylpyrrolidin-3-yl]piperidine-4-carboxamide], the Ki was below 10 nM. The value for `CCOc1ncccc1-c1ncc(C2(C(=O)N[C@H]3CCN(C)C3)CCN(c3ccc(C(F)(F)F)nc3C#N)CC2)cc1F` [Compound 1-110, 1-[2-cyano-6-(trifluoromethyl)pyridin-3-yl]-4-{2′-ethoxy-3-fluoro-[2,3′-bipyridin]-5-yl}-N-[(3S)-1-methylpyrrolidin-3-yl]piperidine-4-carboxamide] was below 10 nM; that for `COc1ccsc1-c1ccc(C2(C(=O)N[C@@H]3CCN(C)C3)CCN(c3ccc(C(F)(F)F)cc3C#N)CC2)cn1` [Compound 1-80, 1-[2-cyano-4-(trifluoromethyl)phenyl]-4-[6-(3-methoxythiophen-2-yl)pyridin-3-yl]-N-[(3R)-1-methylpyrrolidin-3-yl]piperidine-4-carboxamide] was below 10 nM. With `CN1CC[C@@H](NC(=O)C2(c3ccc(-c4ccccc4C(F)(F)F)nc3)CCN(c3ccc(C(F)(F)F)cc3C#N)CC2)C1` [Compound 1-77, 1-[2-cyano-4-(trifluoromethyl)phenyl]-N-[(3R)-1-methylpyrrolidin-3-yl]-4-{6-[2-(trifluoromethyl)phenyl]pyridin-3-yl}piperidine-4-carboxamide] the figure was below 10 nM; with `CCOc1ncccc1-c1ccc(C2(C(=O)N[C@H]3CCN(C)C3)CCN(c3ccc(C#N)cc3C(F)(F)F)CC2)cn1` [Compound 1-38, 1-[4-cyano-2-(trifluoromethyl)phenyl]-4-{2′-ethoxy-[2,3′-bipyridin]-5-yl}-N-[(3S)-1-methylpyrrolidin-3-yl]piperidine-4-carboxamide], below 10 nM. Consider `COc1ccc(F)cc1-c1ccc(C2(C(=O)N[C@H]3CCN(C)C3)CCN(c3ccc(C(F)(F)F)cc3C#N)CC2)cn1` [Compound 1-102, 1-[2-cyano-4-(trifluoromethyl)phenyl]-4-[6-(5-fluoro-2-methoxyphenyl)pyridin-3-yl]-N-[(3S)-1-methylpyrrolidin-3-yl]piperidine-4-carboxamide], for which the Ki is below 10 nM. The value for `COc1ccccc1-c1ccc(C2(C(=O)N[C@@H]3CNC[C@H]3F)CCN(c3ccc(C(F)(F)F)cc3C#N)CC2)cn1` [Compound 1-238, 1-[2-cyano-4-(trifluoromethyl)phenyl]-N-[(3R,4R)-4-fluoropyrrolidin-3-yl]-4-[6-(2-methoxyphenyl)pyridin-3-yl]piperidine-4-carboxamide] was below 10 nM. The value for `CCOc1ncccc1-c1ccc(C2(C(=O)N[C@@H](C)CN(C)C)CCN(c3ccc(C(F)(F)F)cc3C#N)CC2)cn1` [Compound 1-313, 1-[2-cyano-4-(trifluoromethyl)phenyl]-N-[(2S)-1-(dimethylamino)propan-2-yl]-4-{2′-ethoxy-[2,3′-bipyridin]-5-yl}piperidine-4-carboxamide] was below 10 nM; that for `CCc1sccc1-c1ccc(C2(C(=O)N[C@H]3CCN(C)C3)CCN(c3ccc(C(F)(F)F)cc3C#N)CC2)cn1` [Compound 1-147, 1-[2-cyano-4-(trifluoromethyl)phenyl]-4-[6-(2-ethylthiophen-3-yl)pyridin-3-yl]-N-[(3S)-1-methylpyrrolidin-3-yl]piperidine-4-carboxamide] was below 10 nM. With `COc1ccccc1-c1ncc(C2(C(=O)N[C@H]3CCN(C)C3)CCN(c3ccc(C(F)(F)F)nc3C#N)CC2)cc1F` [Compound 1-128, 1-[2-cyano-6-(trifluoromethyl)pyridin-3-yl]-4-[5-fluoro-6-(2-methoxyphenyl)pyridin-3-yl]-N-[(3S)-1-methylpyrrolidin-3-yl]piperidine-4-carboxamide] the figure was below 10 nM. In the case of `Cc1sccc1-c1ccc(C2(C(=O)N[C@@H]3CCN(C)C3)CCN(c3ccc(C(F)(F)F)cc3C#N)CC2)cn1` [Compound 1-112, 1-[2-cyano-4-(trifluoromethyl)phenyl]-N-[(3R)-1-methylpyrrolidin-3-yl]-4-[6-(2-methylthiophen-3-yl)pyridin-3-yl]piperidine-4-carboxamide], the Ki is below 10 nM. With `CN1[C@@H]2CC[C@H]1[C@@H](NC(=O)C1(c3ccc(-c4cccn4C)nc3)CCN(c3ccc(C(F)(F)F)cc3C#N)CC1)C2` (racemic) [Compound 1-251, rac-1-[2-cyano-4-(trifluoromethyl)phenyl]-4-[6-(1-methyl-1H-pyrrol-2-yl)pyridin-3-yl]-N-[(1S,2S,4R)-7-methyl-7-azabicyclo[2.2.1]heptan-2-yl]piperidine-4-carboxamide] the figure was 10 to 100 nM; with `COc1ccccc1-c1ccc(C2(C(=O)NC[C@@H]3C[C@H](F)CN3)CCN(c3ccc(C(F)(F)F)cc3C#N)CC2)cn1` [Compound 1-246, 1-[2-cyano-4-(trifluoromethyl)phenyl]-N-{[(2S,4S)-4-fluoropyrrolidin-2-yl]methyl}-4-[6-(2-methoxyphenyl)pyridin-3-yl]piperidine-4-carboxamide], below 10 nM; with `COc1ccccc1-c1ncc(C2(NC(=O)O[C@@H]3CCN(C)C3)CCN(c3ccc(C(F)(F)F)cc3C#N)CC2)cc1F` [Compound 2-50, (3R)-1-methylpyrrolidin-3-yl N-{1-[2-cyano-4-(trifluoromethyl)phenyl]-4-[5-fluoro-6-(2-methoxyphenyl)pyridin-3-yl]piperidin-4-yl}carbamate], below 10 nM. The value for `Cc1nocc1-c1ccc(C2(C(=O)N[C@H]3CCN(C)C3)CCN(c3ccc(C(F)(F)F)cc3C#N)CC2)cn1` [Compound 1-149, 1-[2-cyano-4-(trifluoromethyl)phenyl]-4-[6-(3-methyl-1,2-oxazol-4-yl)pyridin-3-yl]-N-[(3S)-1-methylpyrrolidin-3-yl]piperidine-4-carboxamide] was below 10 nM.

The values are drawn from patent US12492181B2, “Gem-disubstituted piperidine melanocortin subtype-2 receptor (MC2R) antagonists and uses thereof” (Crinetics Pharmaceuticals, Inc., priority 2019, dated 2025).
